target: T1, c-Met kinase (recombinant c-Met) (Homo sapiens, UniProt P08581); assay: In vitro kinase assay I (homogeneous time-resolved fluorescence tyrosine kinase assay); format: biochemical
T1 construct: 0.27 nM recombinant c-Met
Summary of the method: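 Biotinylated peptide (0.5 μM) phosphorylated by 0.2 nM recombinant c-Met with 50 μM MgATP, 60 min at room temperature, pH 7.4, 5% DMSO. EDTA stop; HTRF read with Eu-anti-phosphotyrosine antibody and streptavidin-APC. IC50 from 4-parameter logistic fit.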

T1 sequence (P08581 25-1390): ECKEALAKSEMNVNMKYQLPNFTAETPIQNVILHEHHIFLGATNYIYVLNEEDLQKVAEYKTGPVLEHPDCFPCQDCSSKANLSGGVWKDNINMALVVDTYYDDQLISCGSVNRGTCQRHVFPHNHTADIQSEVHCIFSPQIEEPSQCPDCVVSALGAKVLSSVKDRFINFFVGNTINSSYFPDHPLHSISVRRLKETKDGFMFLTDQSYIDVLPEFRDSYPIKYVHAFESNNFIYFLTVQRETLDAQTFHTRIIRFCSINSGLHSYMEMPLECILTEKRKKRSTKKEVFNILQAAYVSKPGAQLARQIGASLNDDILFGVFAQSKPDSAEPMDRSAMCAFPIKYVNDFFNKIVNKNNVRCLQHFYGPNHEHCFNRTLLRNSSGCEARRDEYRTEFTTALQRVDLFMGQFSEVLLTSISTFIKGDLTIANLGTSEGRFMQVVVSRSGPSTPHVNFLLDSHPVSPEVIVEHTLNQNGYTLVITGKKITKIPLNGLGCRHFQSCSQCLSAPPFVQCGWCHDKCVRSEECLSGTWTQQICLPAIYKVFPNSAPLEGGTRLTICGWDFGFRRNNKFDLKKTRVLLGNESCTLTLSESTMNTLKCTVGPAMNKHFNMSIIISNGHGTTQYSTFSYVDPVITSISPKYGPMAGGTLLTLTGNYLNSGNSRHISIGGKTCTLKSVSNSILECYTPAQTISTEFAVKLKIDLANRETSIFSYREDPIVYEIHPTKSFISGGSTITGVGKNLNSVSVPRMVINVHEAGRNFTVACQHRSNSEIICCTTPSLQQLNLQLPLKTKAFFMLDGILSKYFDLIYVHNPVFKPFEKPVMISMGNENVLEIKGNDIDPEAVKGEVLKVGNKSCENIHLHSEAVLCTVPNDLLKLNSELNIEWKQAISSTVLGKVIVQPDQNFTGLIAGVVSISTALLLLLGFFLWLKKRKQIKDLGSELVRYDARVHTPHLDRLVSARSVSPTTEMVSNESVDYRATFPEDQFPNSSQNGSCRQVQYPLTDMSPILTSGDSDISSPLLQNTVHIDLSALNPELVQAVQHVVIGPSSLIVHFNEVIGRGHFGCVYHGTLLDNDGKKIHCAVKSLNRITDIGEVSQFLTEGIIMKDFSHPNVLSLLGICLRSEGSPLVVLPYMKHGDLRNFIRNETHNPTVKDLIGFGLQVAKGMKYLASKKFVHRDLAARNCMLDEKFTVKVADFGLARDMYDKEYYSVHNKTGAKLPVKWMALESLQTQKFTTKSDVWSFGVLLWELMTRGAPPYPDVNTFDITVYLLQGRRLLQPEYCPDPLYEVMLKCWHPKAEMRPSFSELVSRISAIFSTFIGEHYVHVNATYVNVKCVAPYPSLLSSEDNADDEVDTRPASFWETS

First: CCCn1cc(-n2ccc(=O)c(Cc3cccc(-c4ncc(OC)cn4)c3)n2)cn1 [Example 114, 3-[3-(5-methoxypyrimidin-2-yl)benzyl]-1-(1-propyl-1H-pyrazol-4-yl)pyridazin-4(1H)-one]
Second: CCOc1cnc(-c2cccc(Cc3nn(-c4cnn(CC(=O)N(C)C)c4)ccc3=O)c2)nc1 [Example 662, 2-(4-{3-[3-(5-ethoxypyrimidin-2-yl)benzyl]-4-oxopyridazin-1(4H)-yl}-1H-pyrazol-1-yl)-N,N-dimethylacetamide]
The IC50 of the first is lower: < 100 nM for the first, 100 to 1000 nM for the second. The first is the more potent here.

`Cn1cc(-n2ccc(=O)c(Cc3ccc4oc(=O)[nH]c4c3)n2)cn1` [Example 24, 5-{[1-(1-methyl-1H-pyrazol-4-yl)-4-oxo-1,4-dihydropyridazin-3-yl]methyl}-1,3-benzoxazol-2(3H)-one] and `Cn1cc(-n2ccc(=O)c(Cc3ccc4nn(C)cc4c3)n2)cn1` [Example 49, 3-[(2-methyl-2H-indazol-5-yl)methyl]-1-(1-methyl-1H-pyrazol-4-yl)pyridazin-4(1H)-one] fall in the same range of IC50: 1000 to 3000 nM for the first, 1000 to 3000 nM for the second.

`O=C(Nc1cccc(Cc2nn(-c3cc(F)cc(F)c3)ccc2=O)c1)OCCN1CCOCC1=O` [Example 605, 2-(3-oxomorpholin-4-yl)ethyl (3-{[1-(3,5-difluorophenyl)-4-oxo-1,4-dihydropyridazin-3-yl]methyl}phenyl)carbamate] and `Cn1cc(-n2ccc(=O)c(Cc3cccc(NC(=O)OCCO)c3)n2)cn1` [Example 630, 2-Hydroxyethyl(3-{[1-(1-methyl-1H-pyrazol-4-yl)-4-oxo-1,4-dihydropyridazin-3-yl]methyl}phenyl)carbamate] cannot be ordered by IC50: < 100 nM for the first, < 100 nM for the second.

`CCOCCOc1cnc(-c2cccc(Cc3nn(-c4cccc(C#N)c4)ccc3=O)c2)nc1` [Example 323, 3-[3-{3-[5-(2-ethoxyethoxy)pyrimidin-2-yl]benzyl}-4-oxopyridazin-1(4H)-yl]benzonitrile] and `COCCCOc1cnc(-c2cccc(Cc3nn(-c4cccc(C#N)c4)ccc3=O)c2)nc1` [Example 322, 3-[3-{3-[5-(3-methoxypropoxy)pyrimidin-2-yl]benzyl}-4-oxopyridazin-1(4H)-yl]benzonitrile] cannot be ordered by IC50: < 100 nM for the first, < 100 nM for the second.

`CC(C)c1nc(COc2cnc(-c3cccc(Cc4nn(-c5cnn(C)c5)ccc4=O)c3)nc2)no1` [Example 283, 3-[3-(5-{[5-(1-methylethyl)-1,2,4-oxadiazol-3-yl]methoxy}pyrimidin-2-yl)benzyl]-1-(1-methyl-1H-pyrazol-4-yl)pyridazin-4(1H)-one] and `CCC(=O)Nc1cnc(-c2cccc(Cc3nn(-c4cnn(C)c4)ccc3=O)c2)nc1` [Example 460, N-[2-(3-{[1-(1-methyl-1H-pyrazol-4-yl)-4-oxo-1,4-dihydro-pyridazin-3-yl]methyl}phenyl)pyrimidin-5-yl}propanamide] cannot be ordered by IC50: < 100 nM for the first, < 100 nM for the second.

Compared with `CCOC(=O)Nc1cccc(Cc2nn(-c3cnn(C4CCOC4)c3)ccc2=O)c1` (racemic) [Example 97, rac-ethyl [3-({4-oxo-1-[1-(tetrahydrofuran-3-yl)-1H-pyrazol-4-yl]-1,4-dihydropyridazin-3-yl}methyl)phenyl]carbamate], `CCOC(=O)Nc1cccc(Cc2nn(-c3cnn(C4CCOCC4)c3)ccc2=O)c1` [Example 91, ethyl [3-({4-oxo-1-[1-(tetrahydro-2H-pyran-4-yl)-1H-pyrazol-4-yl]-1,4-dihydropyridazin-3-yl}methyl)phenyl]carbamate] is higher in IC50: < 100 nM for the first, 100 to 1000 nM for the second.

`CCCOC(=O)Nc1cccc(Cc2nn(-c3cccnc3)ccc2=O)c1` [Example 28, propyl {3-[(4-oxo-1-pyridin-3-yl-1,4-dihydropyridazin-3-yl)methyl]phenyl}carbamate] and `COCCOC(=O)Nc1cccc(Cc2nn(-c3cccc(C#N)c3)ccc2=O)c1` [Example 502, 2-methoxyethyl (3-{[1-(3-cyanophenyl)-4-oxo-1,4-dihydropyridazin-3-yl]methyl}phenyl)carbamate] cannot be ordered by IC50: < 100 nM for the first, < 100 nM for the second.

`CC(C)COC(=O)Nc1cccc(Cc2nn(-c3cnn(CCCC(=O)N4CCCC4)c3)ccc2=O)c1` [Example 700, 2-methylpropyl [3-({4-oxo-1-[1-(4-oxo-4-pyrrolidin-1-ylbutyl)-1H-pyrazol-4-yl]-1,4-dihydropyridazin-3-yl}methyl)phenyl] carbamate] and `COCCn1cnc(-c2cccc(Cc3nn(-c4cnn(C)c4)ccc3=O)c2)n1` [Example 66, 3-{3-[1-(2-methoxyethyl)-1H-1,2,4-triazol-3-yl]benzyl}-1-(1-methyl-1H-pyrazol-4-yl)pyridazin-4(1H)-one] cannot be ordered by IC50: < 100 nM for the first, < 100 nM for the second.

`Cn1cc(-n2ccc(=O)c(Cc3cccc(-c4ncc(CN5CCC(N)CC5)cn4)c3)n2)cn1` [compound 434, 3-(3-{5-[(4-aminopiperidin-1-yl)methyl]pyrimidin-2-yl}benzyl)-1-(1-methyl-1H-pyrazol-4-yl)pyridazin-4(1H)-one] and `Cn1cc(-n2ccc(=O)c(Cc3cccc(-c4ncc(Cc5ccccc5)cn4)c3)n2)cn1` [Example 396] cannot be ordered by IC50: < 100 nM for the first, < 100 nM for the second.

Compared with `CCn1cc(-n2ccc(=O)c(C(C)c3cccc(-c4ncc(COC)cn4)c3)n2)cn1` (single isomer, unassigned) [Example 217, 1-(1-ethyl-1H-pyrazol-4-yl)-3-((1S or R)-1-{3-[5-(methoxymethyl)pyrimidin-2-yl]phenyl}ethyl)pyridazin-4(1H)-one], `CCn1cc(-n2ccc(=O)c(Cc3cccc(-c4ncc(OCC5CCNCC5)cn4)c3)n2)cn1` [Example 336, 1-(1-ethyl-1H-pyrazol-4-yl)-3-{3-[5-(piperidin-4-ylmethoxy)pyrimidin-2-yl]benzyl}pyridazin-4(1H)-one] is lower in IC50: 100 to 1000 nM for the first, < 100 nM for the second. The second is the more potent here.

`CCOc1cnc(-c2cccc(Cc3nn(-c4cccc(F)c4)ccc3=O)c2)nc1` [Example 725, 3-(3-(5-Ethoxypyrimidin-2-yl)benzyl)-1-(3-fluorophenyl)pyridazin-4(1H)-one] and `Cn1cc(-n2ccc(=O)c(Cc3cccc(-c4ncc(-c5ccco5)cn4)c3)n2)cn1` [Example 404, 3-{3-[5-(furan-2-yl)pyrimidin-2-yl]benzyl}-1-(1-methyl-1H-pyrazol-4-yl)pyridazin-4(1H)-one] cannot be ordered by IC50: < 100 nM for the first, < 100 nM for the second.

`CN(CCOC(=O)Nc1cccc(Cc2nn(-c3cc(F)c(F)c(F)c3)ccc2=O)c1)c1ccccc1` [Example 550, 2-[methyl(phenyl)amino]ethyl (3-{[4-oxo-1-(3,4,5-trifluorophenyl)-1,4-dihydropyridazin-3-yl]methyl}phenyl)carbamate] and `CCOCCNc1cnc(-c2cccc(Cc3nn(-c4cnn(C)c4)ccc3=O)c2)nc1` [Example 454, 3-(3-{5-[(2-ethoxyethyl)amino]pyrimidin-2-yl}benzyl)-1-(1-methyl-1H-pyrazol-4-yl)pyridazin-4(1H)-one] cannot be ordered by IC50: < 100 nM for the first, < 100 nM for the second.

`CC(c1cccc(-c2ncc(OCC(C)(C)O)cn2)c1)c1nn(-c2ccc(F)c(F)c2)ccc1=O` (single isomer, unassigned) [Example 249, 1-(3,4-difluorophenyl)-3-[(1S or R)-1-{3-[5-(2-hydroxy-2-methylpropoxy)pyrimidin-2-yl]phenyl}ethyl]pyridazin-4(1H)-one] and `Cc1nc(-c2cccc(Cc3nn(-c4cnn(C)c4)ccc3=O)c2)no1` [Example 42, 3-[3-(5-methyl-1,2,4-oxadiazol-3-yl)benzyl]-1-(1-methyl-1H-pyrazol-4-yl)pyridazin-4(1H)-one] fall in the same range of IC50: 100 to 1000 nM for the first, 100 to 1000 nM for the second.
